This passage reports IC50 results from US20250353820A1, “ANTIVIRAL PYRAZOLOPYRIDINONE COMPOUNDS” (Novartis AG, priority 2019, published 2025).

pIC50: −log10 of the molar value. Counter-ions that a name gives are not always drawn.

The target of the test is human HSV DNA polymerase UL30 (Human herpesvirus 1 (strain 17) (HHV-1) (Human herpes simplex virus 1), UniProt P04293). Put plainly: biochemical. Particulars: 625 pM HSV polymerase, 20 minutes at room temperature; read-out: HSV-polymerase Biochemical IC50.
Take `Cn1nc(C(=O)NCc2ccc(C#N)cc2)c2c1C(=O)N(CC1(S(=O)(=O)C3(CO)COC3)CC1)CC2` [Example 173, N-(4-Cyanobenzyl)-6-((1-((3-(hydroxymethyl)oxetan-3-yl)sulfonyl)cyclopropyl)methyl)-1-methyl-7-oxo-4,5,6,7-tetrahydro-1H-pyrazolo[3,4-c]pyridine-3-carboxamide]: the pIC50 is 7.21.

For the compound `Cn1nc(C(=O)NCc2ccc(C#N)cc2)c2c1C(=O)N(CC1(S(=O)(=O)C3(CN)COC3)CC1)CC2` [Example 174, 6-((1-((3-(Aminomethyl)oxetan-3-yl)sulfonyl)cyclopropyl)methyl)-N-(4-cyanobenzyl)-1-methyl-7-oxo-4,5,6,7-tetrahydro-1H-pyrazolo[3,4-c]pyridine-3-carboxamide], the pIC50 was 7.04.

With `Cn1nc(C(=O)NCc2ccc(Cl)cc2)c2c1C(=O)N(CC1(S(=O)(=O)C(C)(CO)CO)CC1)CC2` [Example 175, N-(4-chlorobenzyl)-6-((1-((1,3-dihydroxy-2-methylpropan-2-yl)sulfonyl)cyclopropyl)methyl)-1-methyl-7-oxo-4,5,6,7-tetrahydro-1H-pyrazolo[3,4-c]pyridine-3-carboxamide], the pIC50 is 7.57.

With `COCC(C)(COC)S(=O)(=O)C1(CN2CCc3c(C(=O)NCc4ccc(C#N)cc4)nn(C)c3C2=O)CC1` [Example 179, N-(4-Cyanobenzyl)-6-((1-((1,3-dimethoxy-2-methylpropan-2-yl)sulfonyl)cyclopropyl)methyl)-1-methyl-7-oxo-4,5,6,7-tetrahydro-1H-pyrazolo[3,4-c]pyridine-3-carboxamide], the pIC50 is 7.21.

In the case of `Cn1nc(C(=O)NCc2ccc(C#N)cc2)c2c1C(=O)N(CC1(S(=O)(=O)C(C)(CN)CO)CC1)CC2` (centres unmarked) [Example 183, 6-((1-((1-Amino-3-hydroxy-2-methylpropan-2-yl)sulfonyl)cyclopropyl)methyl)-N-(4-cyanobenzyl)-1-methyl-7-oxo-4,5,6,7-tetrahydro-1H-pyrazolo[3,4-c]pyridine-3-carboxamide], the pIC50 is 7.19.

For the compound `Cn1nc(C(=O)NCc2ccc(Cl)cc2)c2c1C(=O)N(CC1(S(=O)(=O)C(C)(C)[C@@H](O)CO)CC1)CC2` [Example 190, (S)—N-(4-Chlorobenzyl)-6-((1-((3,4-dihydroxy-2-methylbutan-2-yl)sulfonyl)cyclopropyl)methyl)-1-methyl-7-oxo-4,5,6,7-tetrahydro-1H-pyrazolo[3,4-c]pyridine-3-carboxamide], the pIC50 was 7.70.

Regarding `Cn1nc(C(=O)NCc2ccc(Cl)cc2)c2c1C(=O)N(CC1(S(=O)(=O)C(C)(C)[C@H](O)CO)CC1)CC2` [Example 191, (R)—N-(4-Chlorobenzyl)-6-((1-((3,4-dihydroxy-2-methylbutan-2-yl)sulfonyl)cyclopropyl)methyl)-1-methyl-7-oxo-4,5,6,7-tetrahydro-1H-pyrazolo[3,4-c]pyridine-3-carboxamide], the pIC50 is 7.96.

Turning to `Cn1nc(C(=O)NCc2ccc(C#N)cc2)c2c1C(=O)N(CC1(S(=O)(=O)C(C)(C)[C@@H](O)CO)CC1)CC2` [Example 192, (S)—N-(4-cyanobenzyl)-6-((1-((3,4-dihydroxy-2-methylbutan-2-yl)sulfonyl)cyclopropyl)methyl)-1-methyl-7-oxo-4,5,6,7-tetrahydro-1H-pyrazolo[3,4-c]pyridine-3-carboxamide], the pIC50 was 7.52.

For the compound `Cn1nc(C(=O)NCc2ccc(C#N)cc2)c2c1C(=O)N(CC1(S(=O)(=O)C(C)(C)[C@H](O)CN)CC1)CC2` [Example 198, (R)-6-((1-((4-amino-3-hydroxy-2-methylbutan-2-yl)sulfonyl)cyclopropyl)methyl)-N-(4-cyanobenzyl)-1-methyl-7-oxo-4,5,6,7-tetrahydro-1H-pyrazolo[3,4-c]pyridine-3-carboxamide], the pIC50 is 7.64.

On to `Cn1nc(C(=O)NCc2ccc(C#N)cc2)c2c1C(=O)N(CC1(S(=O)(=O)C3(C(O)CN)CC3)CC1)CC2` (centres unmarked) [Example 208], for which the pIC50 was 7.66.

Take `Cn1nc(C(=O)NCc2ccc(Cl)cc2)c2c1C(=O)N(CC1(S(=O)(=O)C3(C(O)CN)CC3)CC1)CC2` (centres unmarked) [Example 209]: the pIC50 is 7.80.

With `Cn1nc(C(=O)NCc2ccc(C#N)cc2)c2c1C(=O)N(CC1(S(=O)(=O)C(C)(C)[C@H](N)CO)CC1)CC2` [Example 213, (R)-6-((1-((3-amino-4-hydroxy-2-methylbutan-2-yl)sulfonyl)cyclopropyl)methyl)-N-(4-cyanobenzyl)-1-methyl-7-oxo-4,5,6,7-tetrahydro-1H-pyrazolo[3,4-c]pyridine-3-carboxamide], the pIC50 is 7.32.

As for `Cn1nc(C(=O)NCc2ccc(Cl)cc2)c2c1C(=O)N(CC1(S(=O)(=O)C(C)(C)[C@H](N)CO)CC1)CC2` [Example 214, (R)-6-((1-((3-Amino-4-hydroxy-2-methylbutan-2-yl)sulfonyl)cyclopropyl)methyl)-N-(4-chlorobenzyl)-1-methyl-7-oxo-4,5,6,7-tetrahydro-1H-pyrazolo[3,4-c]pyridine-3-carboxamide hydrochloride], the pIC50 is 7.49.

On to `N#Cc1ccc(CNC(=O)c2nn(CCO)c3c2CCN(CC2(S(=O)(=O)C4CC4)CC2)C3=O)cc1` [Example 216, N-(4-Cyanobenzyl)-6-((1-(cyclopropylsulfonyl)cyclopropyl)methyl)-1-(2-hydroxyethyl)-7-oxo-4,5,6,7-tetrahydro-1H-pyrazolo[3,4-c]pyridine-3-carboxamide], for which the pIC50 was 7.16.

On to `CC1(S(=O)(=O)C2(CN3CCc4c(C(=O)NCc5ccc(C#N)cc5)nn(CCO)c4C3=O)CC2)CC1` [Example 217], for which the pIC50 was 7.59.

As for `O=C(NCc1ccc(Cl)cc1)c1nn(CCO)c2c1CCN(CC1(S(=O)(=O)C3CC3)CC1)C2=O` [Example 218], the pIC50 was 7.30.

Consider `CS(=O)(=O)C1(CN2CCc3c(C(=O)NCc4ccc(Cl)cc4)nn(CCO)c3C2=O)CC1` [Example 219], for which the pIC50 was 6.40.

Regarding `CC(C)(CO)S(=O)(=O)C1(CN2CCc3c(C(=O)NCc4ccc(C#N)cc4)nn(CCO)c3C2=O)CC1` [Example 220], the pIC50 was 7.64.

Turning to `CC(C)(CO)S(=O)(=O)C1(CN2CCc3c(C(=O)NCc4ccc(Cl)cc4)nn(CCO)c3C2=O)CC1` [Example 221], the pIC50 is 7.89.

In the case of `CC1(S(=O)(=O)C2(CN3CCc4c(C(=O)NCc5ccc(Cl)cc5)nn(CCOCCO)c4C3=O)CC2)CC1` [Example 222, N-(4-Chlorobenzyl)-1-(2-(2-hydroxyethoxy)ethyl)-6-((1-((1-methylcyclopropyl)sulfonyl)cyclopropyl)methyl)-7-oxo-4,5,6,7-tetrahydro-1H-pyrazolo[3,4-c]pyridine-3-carboxamide], the negative logarithm of the IC50 (pIC50) was 7.37.

`CC1(S(=O)(=O)C2(CN3CCc4c(C(=O)NCc5ccc(Cl)cc5)nn(CCOCCN)c4C3=O)CC2)CC1` [Example 223, 1-(2-(2-aminoethoxy)ethyl)-N-(4-chlorobenzyl)-6-((1-((1-methylcyclopropyl)sulfonyl)cyclopropyl)methyl)-7-oxo-4,5,6,7-tetrahydro-1H-pyrazolo[3,4-c]pyridine-3-carboxamide]: the pIC50 is 7.46.

Regarding `CCC(=O)Cn1nc(C(=O)NCc2ccc(C#N)cc2)c2c1C(=O)N(CC1(S(=O)(=O)C3CC3)CC1)CC2` [Example 227, N-(4-cyanobenzyl)-6-((1-(cyclopropylsulfonyl)cyclopropyl)methyl)-7-oxo-1-(2-oxobutyl)-4,5,6,7-tetrahydro-1H-pyrazolo[3,4-c]pyridine-3-carboxamide], the pIC50 was 7.51.

As for `N#Cc1ccc(CNC(=O)c2nn(CC3(O)CC3)c3c2CCN(CC2(S(=O)(=O)C4CC4)CC2)C3=O)cc1` [Example 228, N-(4-Cyanobenzyl)-6-((1-(cyclopropylsulfonyl)cyclopropyl)methyl)-1-((1-hydroxycyclopropyl)methyl)-7-oxo-4,5,6,7-tetrahydro-1H-pyrazolo[3,4-c]pyridine-3-carboxamide], the pIC50 was 7.25.

Take `CC(C)(O)Cn1nc(C(=O)NCc2ccc(Cl)cc2)c2c1C(=O)N(CC1(S(=O)(=O)C3CC3)CC1)CC2` [Example 229, N-(4-Chlorobenzyl)-6-((1-(cyclopropylsulfonyl)cyclopropyl)methyl)-1-(2-hydroxy-2-methylpropyl)-7-oxo-4,5,6,7-tetrahydro-1H-pyrazolo[3,4-c]pyridine-3-carboxamide]: the pIC50 is 7.51.

On to `CC(C)(O)Cn1nc(C(=O)NCc2ccc(C#N)cc2)c2c1C(=O)N(CC1(S(=O)(=O)C3CC3)CC1)CC2` [Example 230], for which the pIC50 is 7.47.

In the case of `CC(C)(O)Cn1nc(C(=O)NCc2ccc(Cl)cc2)c2c1C(=O)N(CC1(S(C)(=O)=O)CC1)CC2` [Example 231], the pIC50 is 6.56.

On to `CC(C)(O)Cn1nc(C(=O)NCc2ccc(C#N)cc2)c2c1C(=O)N(CC1(S(C)(=O)=O)CC1)CC2` [Example 232], for which the pIC50 is 6.47.

For `CCS(=O)(=O)C1(CN2CCc3c(C(=O)NCc4ccc(C#N)cc4)nn(CC(C)(C)O)c3C2=O)CC1` [Example 233], the pIC50 was 6.82.

As for `CC(C)(O)Cn1nc(C(=O)NCc2ccc(C#N)cc2)c2c1C(=O)N(CC1(S(=O)(=O)C3(CO)CC3)CC1)CC2` [Example 234], the negative logarithm of the IC50 (pIC50) is 7.72.

On to `CC(C)(O)Cn1nc(C(=O)NCc2ccc(C#N)cc2)c2c1C(=O)N(CC1(S(=O)(=O)C(C)(C)CO)CC1)CC2` [Example 235], for which the pIC50 was 7.80.

`N#Cc1ccc(CNC(=O)c2nn(CCCO)c3c2CCN(CC2(S(=O)(=O)C4CC4)CC2)C3=O)cc1` [Example 236, N-(4-Cyanobenzyl)-6-((1-(cyclopropylsulfonyl)cyclopropyl)methyl)-1-(3-hydroxypropyl)-7-oxo-4,5,6,7-tetrahydro-1H-pyrazolo[3,4-c]pyridine-3-carboxamide]: the pIC50 is 7.04.

Turning to `CC1(S(=O)(=O)C2(CN3CCc4c(C(=O)NCc5ccc(C#N)cc5)nn(CCCO)c4C3=O)CC2)CC1` [Example 237, N-(4-Cyanobenzyl)-1-(3-hydroxypropyl)-6-((1-((1-methylcyclopropyl)sulfonyl)cyclopropyl)methyl)-7-oxo-4,5,6,7-tetrahydro-1H-pyrazolo[3,4-c]pyridine-3-carboxamide], the pIC50 is 7.39.

In general, pIC50 refers to the negative decadic logarithm of the IC50, by convention in mol/L.
